# Measured values taken from publication PMC10157890, “Lysine Deacetylase Substrate Selectivity: Distinct Interaction Surfaces Drive Positive and Negative Selection for Residues Following Acetyllysine” (Biochemistry, 2023).
# Target: T1, Full-length human KDAC8 (Homo sapiens, UniProt Q9BY41)
# T1 construct: Full-length human KDAC8 (UniProtKB Q9BY41) was recombinantly expressed fused to a C-terminal His6 tag; TEV protease cleavage site (C); His6 (C); made in house; host or cells: Escherichia coli
# T1 sequence (Q9BY41 1-377): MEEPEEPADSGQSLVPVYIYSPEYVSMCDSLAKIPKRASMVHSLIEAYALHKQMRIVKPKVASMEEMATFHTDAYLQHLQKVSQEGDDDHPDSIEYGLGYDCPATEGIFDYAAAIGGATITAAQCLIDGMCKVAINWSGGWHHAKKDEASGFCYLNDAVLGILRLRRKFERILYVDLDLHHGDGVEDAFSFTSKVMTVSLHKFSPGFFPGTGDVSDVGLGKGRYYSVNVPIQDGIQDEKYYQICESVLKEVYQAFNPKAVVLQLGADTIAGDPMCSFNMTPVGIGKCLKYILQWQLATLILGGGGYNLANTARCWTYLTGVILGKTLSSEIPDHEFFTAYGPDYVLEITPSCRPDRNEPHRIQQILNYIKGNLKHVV
# Test: Activity of KDAC8 with putative substrate peptides (verification of substrate preferences)
# Assay type: biochemical
# Details: endpoint, 100 μM peptide, 50–200 nM KDAC, 25 °C, pH 7.6, 15–60 min, buffer also containing 100 mM KCl; average ± SD; SD
# Experimental: (§1) Peptide substrates were synthesized to >95% purity (GenScript) with N-terminal acetylation and C-terminal amidation. For endpoint experiments, 100 μM peptide substrates were reacted with 50–200 nM KDAC at 25 °C at pH 7.6 for 15–60 min. Deacetylation was measured using a fluorescamine-based assay that was previously described in detail.[18] Reported raw activity for each enzyme–substrate pair is the average and standard deviation for n ≥ 4 unless otherwise noted. Normalized activity was calculated by defining the activity of each KDAC with the FRK^acWR peptide equal to 1. Statistical significance was determined by calculating p values using two-tailed t-tests, assuming similar variance. The significance threshold was set at p ≤ 0.01 with the Bonferroni correction for multiple testing. Kinetic parameters were determined for a subset of enzyme–substrate pairs. In these experiments, 50–200 nM KDAC was reacted with ≥5 substrate concentrations from 10 to 2500 nM and ≥3 timepoints at intervals of 3–20 min were collected for each substrate concentration. Deacetylation was measured using the same method as the endpoint experiments, and KM and kcat were calculated from the observed activity of each reaction as previously described.[18] Activity assays with peptides for verification of substrate preferences were performed as for endpoint experiments, except in a buffer also containing 100 mM KCl. Statistical analysis of the correlation of the presence of particular substrate residues with activity was performed using Fisher’s exact test with a significance threshold of p ≤ 0.05.
# We performed a similar experiment for KDAC8, this time using substrates that have been described as potential KDAC8 substrates from cell-based studies or which contained residues in the +1 and/or +2 positions that were identified to enhance activity of KDAC8. […] In addition, we also considered phenylalanine, as we did for KDAC6. Here, we looked at the correlation between peptides having any of these features and activity. While the result was less striking than for KDAC6, there was still a positive correlation between the presence of the identified residues and activity (Table 3; p = 0.048). Although we have identified only a portion of the interactions that likely contribute to substrate selectivity for these enzymes, these interactions correlate with a statistically significant increase in activity with peptides from potential biological substrates in an unbiased background of residues in other positions.
row,Substance,"specific activity, KDAC8 with putative substrates [s^–1]"
1,AFGK^acYCR,0.0029 ± 0.0004
2,GRAK^acYWL [acetyllysine peptide from E3 SUMO-protein ligase RanBP2 (P49792)],0.007 ± 0.003
3,"RIPK^acEQW [acetyllysine peptide from ATP-dependent 6-phosphofructokinase, platelet type (Q01813)]",0.0031 ± 0.0015

# Results, then the substance that gave them:
row,"specific activity, KDAC8 with putative substrates [s^–1]",Substance
1,0.0006 ± 0.0004,LGGK^acQRA [acetyllysine peptide from retinoic acid-induced protein 1 (Q7Z5J4)]
2,0.0035 ± 0.0021,PLWK^acGIG [acetyllysine peptide from regulator of nonsense transcripts 1 (Q92900)]
3,0.0030 ± 0.0016,RFTK^acCLR [acetyllysine peptide from steroid hormone receptor ERR1 (P11474)]
4,0.015 ± 0.014,RMFK^acQFN [acetyllysine peptide from transcription intermediary factor 1-β (Q13263)]

# Same assay, conditions: endpoint, 100 μM peptide, buffer also containing 100 mM KCl; limit of reliable detection 0.0004 s^–1
row,Substance,"specific activity, KDAC8 with putative substrates (no activity above limit)"
1,EIGK^acTLA,– (– indicates no activity above the limit of reliable detection (0.0004 s^–1))
2,EVGK^acLLN [acetyllysine peptide from centromere protein F (P49454)],– (– indicates no activity above the limit of reliable detection (0.0004 s^–1))
3,VGGK^acDFE [acetyllysine peptide from PDZ and LIM domain protein 1 (O00151)],– (– indicates no activity above the limit of reliable detection (0.0004 s^–1))

# Target: T2, full-length human KDAC6 (Homo sapiens, UniProt Q9UBN7)
# T2 construct: A pFastbac1 construct containing full-length human KDAC6 (UniProtKB Q9UBN7) with a C-terminal His6 tag; His6 (C); made in house; host or cells: ExpiSf9 insect cells (baculovirus)
# T2 sequence (Q9UBN7 1-1215): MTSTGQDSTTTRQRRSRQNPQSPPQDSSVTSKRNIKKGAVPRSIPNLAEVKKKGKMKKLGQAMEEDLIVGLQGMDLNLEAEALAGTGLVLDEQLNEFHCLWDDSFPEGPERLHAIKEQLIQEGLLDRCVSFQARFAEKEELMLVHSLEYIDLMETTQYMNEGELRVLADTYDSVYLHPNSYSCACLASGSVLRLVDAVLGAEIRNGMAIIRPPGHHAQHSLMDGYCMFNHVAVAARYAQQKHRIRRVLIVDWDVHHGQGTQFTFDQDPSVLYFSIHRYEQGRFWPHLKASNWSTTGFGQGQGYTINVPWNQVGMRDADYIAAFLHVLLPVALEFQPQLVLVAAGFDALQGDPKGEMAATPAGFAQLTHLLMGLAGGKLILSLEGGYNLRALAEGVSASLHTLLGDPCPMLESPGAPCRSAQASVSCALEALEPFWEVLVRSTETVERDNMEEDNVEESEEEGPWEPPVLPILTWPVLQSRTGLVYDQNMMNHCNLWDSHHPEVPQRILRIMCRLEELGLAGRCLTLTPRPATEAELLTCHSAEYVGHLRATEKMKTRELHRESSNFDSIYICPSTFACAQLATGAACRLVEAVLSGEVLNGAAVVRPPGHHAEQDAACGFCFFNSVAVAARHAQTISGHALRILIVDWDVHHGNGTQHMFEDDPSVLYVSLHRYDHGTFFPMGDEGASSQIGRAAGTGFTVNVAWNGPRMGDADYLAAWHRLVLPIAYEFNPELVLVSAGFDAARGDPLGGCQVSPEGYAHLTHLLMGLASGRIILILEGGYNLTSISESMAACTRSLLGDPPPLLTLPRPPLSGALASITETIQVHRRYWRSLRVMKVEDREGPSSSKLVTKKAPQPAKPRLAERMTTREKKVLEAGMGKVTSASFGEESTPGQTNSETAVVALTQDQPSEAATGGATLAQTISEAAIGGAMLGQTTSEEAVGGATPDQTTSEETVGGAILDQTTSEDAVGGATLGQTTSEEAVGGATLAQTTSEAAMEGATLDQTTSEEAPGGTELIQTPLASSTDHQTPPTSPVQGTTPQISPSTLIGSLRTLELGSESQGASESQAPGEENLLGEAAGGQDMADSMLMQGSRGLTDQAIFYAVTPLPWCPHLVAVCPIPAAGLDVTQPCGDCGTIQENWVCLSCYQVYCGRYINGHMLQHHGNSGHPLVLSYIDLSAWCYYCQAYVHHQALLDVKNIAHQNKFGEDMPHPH
# Test: Activity of KDAC6 with putative substrate peptides (verification of substrate preferences)
# Assay type: biochemical
# Details: endpoint, 100 μM peptide, 50–200 nM KDAC, 25 °C, pH 7.6, 15–60 min, buffer also containing 100 mM KCl; average ± SD; SD
# Experimental: as §1
# In contrast with the peptides tested thus far, which were all derivatives of a single substrate, these panels consisted of peptides derived from human proteins in which the lysine residue is known to be acetylated in cells.[3],[5],[42],[50]−[72] For each enzyme, peptides were included either because they contained an acetyllysine that has been identified as a putative substrate of the KDAC from published cellular studies and/or because the peptide contained a residue that appeared to drive KDAC activity in our analysis. For KDAC6, we observed that of the set of peptides that were tested, six contained tryptophan or tyrosine directly after the acetyllysine. Remarkably, all of these peptides appeared in the top seven most reactive substrates tested (Table 2). Assuming that phenylalanine would behave similarly to tryptophan and tyrosine, we determined that there was a statistically significant correlation between whether or not a peptide was deacetylated by KDAC6 and the presence of tyrosine, tryptophan, or phenylalanine in the +1 position (p = 0.011). […] Thus, our conclusion that the presence of these aromatic residues in the +1 position relative to the acetyllysine is a major factor promoting KDAC6 activity has predictive utility and provides some understanding of the underlying mechanistic basis.
row,Substance,"specific activity, KDAC6 with putative substrates [s^–1]"
1,AFGK^acYCR,0.20 ± 0.09
2,GRAK^acYWL [acetyllysine peptide from E3 SUMO-protein ligase RanBP2 (P49792)],0.100 ± 0.009
3,TDGK^acVFQ [acetyllysine peptide from 60S ribosomal protein L24 (P83731)],0.026 ± 0.024

# Other lines, results leading:
row,"specific activity, KDAC6 with putative substrates [s^–1]",Substance
1,0.06 ± 0.03,GAGK^acHVP [acetyllysine peptide from tubulin α-1A chain (P68369)]
2,0.011 ± 0.009,IIDK^acSQL [acetyllysine peptide from serine/threonine-protein kinase SIK2 (Q9H0K1)]
3,0.009 ± 0.007,LDHK^acFDL [acetyllysine peptide from tubulin α-1A chain (P68369)]
4,0.042 ± 0.009,LSGK^acGNP [acetyllysine peptide from catenin β-1 (P35222)]
5,0.022 ± 0.006,QATK^acDAG [acetyllysine peptide from heat shock 70 kDa protein 1A/1B (P0DMV8/P0DMV9)]
6,0.010 ± 0.006,"YFSK^acHN [acetyllysine peptide from peroxiredoxin-2 (P32119), C-terminus, not amidated]"

# Same assay, conditions: endpoint, 100 μM peptide, buffer also containing 100 mM KCl; limit of reliable detection 0.0013 s^–1
row,Substance,"specific activity, KDAC6 with putative substrates (no activity above limit)"
1,DLAK^acVQR [acetyllysine peptide from tubulin α-1A chain (P68369)],– (– indicates no activity above the limit of reliable detection (0.0013 s^–1))
2,FFHK^acVNE [acetyllysine peptide from Mitofusin-1 (Q8IWA4)],– (– indicates no activity above the limit of reliable detection (0.0013 s^–1))
3,LISK^acIRE [acetyllysine peptide from tubulin β (Q13509)],– (– indicates no activity above the limit of reliable detection (0.0013 s^–1))
4,PDRK^acPFP [acetyllysine peptide from E3 SUMO-protein ligase EGR2 (P11161)],– (– indicates no activity above the limit of reliable detection (0.0013 s^–1))
5,PEAK^acSLL [acetyllysine peptide from RAC-α serine/threonine-protein kinase (P31749)],– (– indicates no activity above the limit of reliable detection (0.0013 s^–1))
6,PSPK^acVSD [acetyllysine peptide from tubulin β-3 chain (Q13509)],– (– indicates no activity above the limit of reliable detection (0.0013 s^–1))
7,SVRK^acGIM,– (– indicates no activity above the limit of reliable detection (0.0013 s^–1))
8,TLSK^acLHE [acetyllysine peptide from protein diaphanous homologue 3 (Q9NSV4)],– (– indicates no activity above the limit of reliable detection (0.0013 s^–1))
9,VLEK^acLGE [acetyllysine peptide from serine/threonine-protein kinase 4 (Q13043)],– (– indicates no activity above the limit of reliable detection (0.0013 s^–1))
